Common to all, as to test: growth of human tumour cells (NCI), 48 h
Assay [1] relates to ACHN renal.
Assay [2] concerns CAKI-1 renal.
In assay [3] the test system is CCRF-CEM leukemia.
The subject of assay [4] is HT29 colon.
Assay [5] deals with IGROV1 ovarian.
For assay [6], the system named is LOX IMVI melanoma.
Assay [7] has as its system MALME-3M melanoma.
The test system of assay [8] is NCI/ADR-RES ovarian.
Assay [9] relates to OVCAR-8 ovarian.
Assay [10] deals with RPMI-8226 leukemia.

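Where inhibition never reached the appropriate level, the endpoint shown equals the highest concentration tested. Otherwise, values were interpolated linearly from a five-concentration, 48-hour dose response in 96-well plates. Abbreviation: GI50, concentration required for 50% inhibition of growth. TGI is the concentration that stops growth completely.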

`CCCCCCCCCCNC(=O)CCC(NC(=O)c1ccc(N(C)Cc2cnc3nc(N)nc(N)c3n2)cc1)C(=O)NCCCCCCCCCC` (stereo not drawn): the TGI in assay [1] is more than 100 µM; in assay [2] it was more than 100 µM; in assay [3], 5.9 µM; in assay [4], 35.2 µM; in assay [5] it was 20.1 µM; in [6], 5.81 µM. The TGI is 37.7 µM in assay [7], more than 100 µM in [8], 25.5 µM in [9] and more than 70.4 µM in [10].
For `CCOC(=O)c1ccc(N=c2sc3ccccc3nc2Nc2ccc(C(=O)OCC)cc2)cc1`, the TGI in [1], in assay [2], in assay [3], in assay [4], in assay [5] and in [6] was more than 100 µM in each case. Besides, the TGI in assay [7], in [8], in [9] and in assay [10] was more than 100 µM each time.
As to `C(=C\c1ccco1)/c1cccc(/C=C/c2ccco2)n1`, the TGI in assay [1], in assay [2], in assay [3], in assay [4], in assay [5] and in [6] was more than 50 µM throughout. For the same compound, the TGI in assay [7], in [8], in assay [9] and in assay [10] was more than 50 µM each time.
For the compound `CCCCCCCCCCCCC(O)[C@H]1CC[C@H](C(O)CCCCCC(=O)CCCCC2CC(C(C)=O)C(=O)O2)O1` (stereo partly drawn), the GI50 in assay [1] was 1.68 µM; in assay [3], 2.15 µM; in assay [4], 2.96 µM; in assay [5] it was 4.3 µM; in assay [6], 1.87 µM; in assay [8], 1.87 µM. The GI50 in assay [9] was 4.34 µM; in assay [10], 2.12 µM. Besides, the TGI was 70.4 µM in assay [1]; 50.3 µM in [2]; more than 45.6 µM in assay [3]; more than 53.5 µM in assay [4]; 71.6 µM in [5]; 21.6 µM in [6]. For the same compound, the TGI is 23.7 µM in assay [7], 40.4 µM in [8], more than 53.9 µM in [9] and more than 27.8 µM in assay [10].
In the case of `C=C1CCC([N+](=O)[O-])[C@](C)(N=O)CC[C@@H]2C1CC2(C)C` (stereo partly drawn), the TGI in [1] was more than 100 µM; in assay [2] it was more than 100 µM; in assay [3], more than 100 µM; in [4], 45.4 µM; in assay [5], 59.1 µM; in assay [6] it was 41.7 µM. Also, the TGI in assay [7] was 49.5 µM; in assay [8], 82 µM; in [9] it was 48 µM; in assay [10], more than 100 µM.
In the case of `Nc1onc2c1Cc1c(noc1N)-c1ccccc1-2`, the TGI in assay [1], in assay [2], in assay [3], in assay [4], in assay [5] and in [6] was more than 100 µM each time. For the same compound, the TGI in [7], in [8], in [9] and in [10] was more than 100 µM in each case.
Take `N[C@H]1CCCC[C@@H]1N1C(=O)c2ccccc2C1(O)c1ccc(Cl)cc1` (stereo partly drawn): the TGI in assay [1] amounted to 27 µM; in assay [2], 20.7 µM; in assay [3], 16.7 µM; in assay [4], 15.6 µM; in assay [5], 25.7 µM; in assay [6], 22.5 µM. Also, the TGI in assay [7] amounted to 27.8 µM; in [8], 30.8 µM; in assay [9], 32.4 µM; in [10] it was 13.6 µM.
Take `Cn1c(-c2cccc([N+](=O)[O-])c2)[n+](C)c2ccccc21`: the TGI in assay [1], in assay [2], in assay [3], in assay [4], in [5] and in assay [6] was more than 100 µM each time. Besides, the TGI in assay [7], in assay [8], in assay [9] and in assay [10] was more than 100 µM each time.
As to `Cc1ccc(S(=O)(=O)NNCNC(=O)c2ccccc2)cc1`, the TGI is more than 100 µM in [1]; more than 100 µM in assay [2]; 63.2 µM in assay [3]; more than 100 µM in assay [4]; more than 100 µM in [5]; more than 100 µM in assay [6]. Moreover, the TGI in assay [7], in assay [8], in assay [9] and in assay [10] was more than 100 µM in each case.
On to `Oc1ccc2c(c1)-c1c(c3ccccc3n1CCN1CCOCC1)CC2`, for which the TGI in [1] was 53.3 µM; in assay [2] it was more than 100 µM; in [3] it was more than 100 µM; in assay [4], more than 100 µM; in [5] it was more than 100 µM; in [6], more than 100 µM. For the same compound, the TGI was more than 100 µM in [7], 95.3 µM in [8], more than 100 µM in assay [9] and more than 100 µM in [10].
Turning to `O=C(NNC(=S)NC1CCCCC1)c1csc(NC(=S)NC2CCCCC2)n1`, the TGI is 15.3 µM in assay [1]; 24.2 µM in assay [2]; more than 100 µM in [3]; more than 100 µM in assay [4]; 26.6 µM in assay [5]; 18.9 µM in [6]. Also, the TGI turned out to be 26 µM in [7], 13.3 µM in assay [8], 15 µM in assay [9] and 46.7 µM in assay [10].
`NC(N)=Nc1ccc(CC(N)C(=O)O)cc1` (stereo not drawn): the TGI in assay [1], in assay [2], in assay [3], in [4], in [5] and in assay [6] was more than 12.5 µM throughout. Besides, the TGI in assay [7], in assay [8], in assay [9] and in assay [10] was more than 12.5 µM throughout.

For the origin of these results see PubChem BioAssay (NCI).
